Laboratory results reported in publication PMC3034772 (Pharmaceutical research, 2010).
Where “and” joins values, the source holds several entries; their conditions need not be identical. Equal values may be shown once. Read-outs that look alike come from different tables or passages of the source.

How the values were obtained:
[1] = In combo PAMPA-BBB model, calculated log Po in situ
[2] = Charge class Q, dominant calculated charge state at pH 7.4; assay type: physicochemical
physchem [3] = test: physchem
[4] = PAMPA; for Pm^7.4: pH 7.4
[5] = in vivo
[6] = mouse, in vivo
[7] = for Pm^7.4: pH 7.4
[8] = cited from earlier work
[9] = mouse, in vivo; cited from earlier work
[10] = cited from earlier work; remark: listed apart in the source
physchem [11] = test: physchem; remark: listed apart in the source
[12] = In situ brain perfusion, individual literature values; conditions: efflux inhibition CsA; from literature PS
[13] = difference observed minus calculated, external set, no efflux inhibition
[14] = dominant calculated concentration fraction of the drug in a charge state

CN1CCCCC1CCN1c2ccccc2Sc2ccc([S+](C)[O-])cc21 (centres unmarked) [Mesoridazine]
obs–calc (log Po^in situ) [1, 13]: 0.8
Q (charge class) [2, 14]: +
pKa (physchem [3]; pKa): 7.79
log PABL [4]: −3.26
log Po [4]: −4.33
log Ppara [4]: −6.21
Pm^7.4 [4]: 14

CC(C)[C@H](NC(=O)[C@H](CCC(=O)O)NC(=O)[C@H](Cc1ccccc1)NC(=O)[C@@H](C)NC(=O)[C@@H](N)Cc1ccc(O)cc1)C(=O)N[C@H](C(=O)NCC(N)=O)C(C)C [Deltorphin II]
log Po^in situ (obs) [5]: −6.56
log Po^in situ (obs) [6]: −6.36
log Po ([7]; PAMPA): −6.51
Pm^7.4 ([7]; PAMPA): <0.01
PS ([8]; in vivo): 0.3 10^−4 mLg^−1s^−1
log PS ([8]; in vivo): −4.56
PS [9]: 0.4 10^−4 mLg^−1s^−1
log PS [9]: −4.36

OCCOCCN1CCN(C2=Nc3ccccc3Sc3ccccc32)CC1 [Quetiapine]
obs–calc (log Po^in situ) [1, 13]: 0.2
Q (charge class) [2, 14]: 0
pKa ([10]; ref [38]): 7.30
pKa ([10]; second pKa column, ref [38]): 2.27
log PABL [4]: −3.88
log Po [4]: −2.98
log Ppara [4]: −6.02
Pm^7.4 [4]: 583

CN(Cc1cnc2nc(N)nc(N)c2n1)c1ccc(C(=O)N[C@@H](CCC(=O)O)C(=O)O)cc1 [Methotrexate]
Q (charge class) [2, 14]: ±
log PABL ([7]; PAMPA): −4.73
Pm^7.4 ([7]; PAMPA): 0.001
pKa (physchem [3]; pKa): 5.55

N[C@@H](Cc1ccc(N(CCCl)CCCl)cc1)C(=O)O [Melphalan]
obs–calc (log Po^in situ) [1]: 0.0
Q (charge class) [2]: ±
log Po^in situ (obs) [5]: −5.27
PS ([8]; in vivo): 5 10^−4 mLg^−1s^−1
log PS ([8]; in vivo): −3.28
log PABL [4]: −4.65
log Po [4]: −7.51
log Ppara [4]: −7.71
Pm^7.4 [4]: 0.03

COc1cccc2c1C(=O)c1c(O)c3c(c(O)c1C2=O)C[C@@](O)(C(C)=O)C[C@@H]3O[C@H]1C[C@H](N)[C@H](O)[C@H](C)O1 [Daunomycin]
obs–calc (log Po^in situ) [1]: 0.8
Q (charge class) [2]: +
pKa ([10]; ref [39]): 12.00
pKa ([10]; second pKa column, ref [39]): 9.70
log PABL [4]: −4.38
log Po [4]: −2.71
log Ppara [4]: −6.91
Pm^7.4 [4]: 10

O=c1[nH]c2ccccc2n1CCCN1CCC(n2c(=O)[nH]c3cc(Cl)ccc32)CC1 [Domperidone]
Q (charge class) [2, 14]: +
pKa (physchem [11]): 9.38
PS ([8]; in vivo): 5 10^−4 mLg^−1s^−1
log PS ([8]; in vivo): −3.29
PS [9]: 16 10^−4 mLg^−1s^−1

O=C1CC2(CCCC2)CC(=O)N1CCCCN1CCN(c2ncccn2)CC1 [Buspirone]
Q (charge class) [2, 14]: +
pKa (physchem [3]; pKa): 7.59

Cc1cn([C@H]2C[C@H](N=[N+]=[N-])[C@@H](CO)O2)c(=O)[nH]c1=O [Zidovudine]
Q (charge class) [2, 14]: 0
log Po ([7]; PAMPA): −6.24
pKa (physchem [3]; pKa): 9.61

N[C@@H](Cc1ccc(F)cc1)C(=O)O [p-F-Phenylalanine(L)]
log Po^in situ (obs) [6]: −3.45
PS [9]: 347 10^−4 mLg^−1s^−1
log PS [9]: −1.46

CC(C)c1nc(CN(C)C(=O)N[C@H](C(=O)N[C@@H](Cc2ccccc2)C[C@H](O)[C@H](Cc2ccccc2)NC(=O)OCc2cncs2)C(C)C)cs1 [Ritonavir]
obs–calc (log Po^in situ) [1, 13]: −0.7 and −0.6
obs–calc (log Po^in situ) ([1]; efflux inhibition mdr1a(−/−)): 0.0 and 0.2
Q (charge class) [2, 14]: 0
log Po ([7]; PAMPA): −4.24
Pm^7.4 ([7]; PAMPA): 57
pKa (physchem [3]; pKa): 2.42

CC(=O)CC(c1ccccc1)c1c(O)c2ccccc2oc1=O (centres unmarked) [Warfarin]
obs–calc (log Po^in situ) [1]: 0.4 and 0.5
Q (charge class) [2, 14]: −
pKa (physchem [3]): 4.75
log PABL [4]: −3.04
log Po [4]: −3.21
log Ppara [4]: −8.00
Pm^7.4 [4]: 1.4

CN(C)CCC=C1c2ccccc2COc2ccccc21 [Doxepin]
obs–calc (log Po^in situ) ([1]; no efflux inhibition): 0.3
Q (charge class) [2, 14]: +
pKa ([10]; ref [11]): 9.45
log PABL [4]: −3.13
log Po [4]: −1.60
log Ppara [4]: −6.47
Pm^7.4 [4]: 223

Oc1ccc2c3c1O[C@H]1c4[nH]c5ccccc5c4C[C@@]4(O)[C@@H](C2)N(CC2CC2)CC[C@]314 [Naltrindole]
Q (charge class) [2]: +
log Po^in situ (obs) [6]: −3.03
PS [9]: 104 10^−4 mLg^−1s^−1
log PS [9]: −1.98
log Po [4]: −2.23
log Ppara [4]: −6.20
Pm^7.4 [4]: 659

N[C@@H](Cc1ccc(O)c(O)c1)C(=O)O [L-DOPA]
obs–calc (log Po^in situ) [1, 13]: 0.7 and 0.9
Q (charge class) [2, 14]: ±
pKa ([10]; ref [39]): 8.77
log PABL [4]: −4.47
log Po [4]: −7.81
Pm^7.4 [4]: 0.01

CSc1ccc2c(c1)N(CCC1CCCCN1C)c1ccccc1S2 (centres unmarked) [Thioridazine]
obs–calc (log Po^in situ) ([1]; no efflux inhibition): −0.8
Q (charge class) [2, 14]: +
pKa ([10]; ref [11]): 8.82
log PABL [4]: −2.84
log Po [4]: −1.27
log Ppara [4]: −6.23
Pm^7.4 [4]: 1972

COc1ccc(CCN2CCC(Nc3nc4ccccc4n3Cc3ccc(F)cc3)CC2)cc1 [Astemizole]
obs–calc (log Po^in situ) ([1]; efflux inhibition mdr1a(−/−)): −1.2
obs–calc (log Po^in situ) ([1]; no efflux inhibition): −1.3
Q (charge class) [2, 14]: +
pKa ([10]; ref [46]): 8.60
pKa ([10]; second pKa column, ref [46]): 5.84
log PABL [4]: −3.54
log Po [4]: −1.39
log Ppara [4]: −6.54
Pm^7.4 [4]: 2422

CC(C)(C)c1ccc(C(O)CCCN2CCC(C(O)(c3ccccc3)c3ccccc3)CC2)cc1 (centres unmarked) [Terfenadine]
obs–calc (log Po^in situ) [1, 13]: −0.9
obs–calc (log Po^in situ) ([1]; efflux inhibition CsA): 0.0
Q (charge class) [2, 14]: +
log Po^in situ (obs) [12]: −0.92
log PS ([8]; efflux inhibition CsA): −1.39
log PABL [4]: −3.76
log Po [4]: −0.54
log Ppara [4]: −5.70

N[C@H](Cc1ccc(F)cc1)C(=O)O [p-F-Phenylalanine(D)]
log Po^in situ (obs) [5]: −4.84
log Po^in situ (obs) [6]: −4.81
PS ([8]; in vivo): 14 10^−4 mLg^−1s^−1
log PS ([8]; in vivo): −2.85

CCC12CCN(CC3(O)CC3)C(Cc3ccc(O)cc31)C2(C)C (centres unmarked) [Bremazocine]
obs–calc (log Po^in situ) [1]: 0.4 and 0.2
Q (charge class) [2]: +
log Po^in situ (obs) [5]: −2.96
log Po^in situ (obs) [6]: −2.76
log Po ([7]; PAMPA-BBB intrinsic permeability, Type I, collected under 1.5 μL conditions but scaled to the 3 μL level): −2.87
log PABL ([7]; aqueous boundary layer permeability, Type I, 1.5 μL conditions): −3.00
PS ([8]; in vivo): 81 10^−4 mLg^−1s^−1
log PS ([8]; in vivo): −2.09
PS [9]: 129 10^−4 mLg^−1s^−1
log PS [9]: −1.89

CN1CCN(CCCN2c3ccccc3Sc3ccc(C(F)(F)F)cc32)CC1 [Trifluoperazine]
obs–calc (log Po^in situ) [1, 13]: −1.1
Q (charge class) [2, 14]: +
pKa (physchem [11]): 8.22
log PABL [4]: −3.32
log Po [4]: −1.96
log Ppara [4]: −5.94
Pm^7.4 [4]: 1442

COc1cc2nc(N3CCN(C(=O)c4ccco4)CC3)nc(N)c2cc1OC [Prazosin]
pKa (physchem [3]; pKa): 6.79

CCC1(C)CC(=O)NC1=O (centres unmarked) [Ethosuximide]
obs–calc (log Po^in situ) ([1]; no efflux inhibition): 0.2
Q (charge class) [2, 14]: 0
pKa (physchem [11]): 9.18
log Po [4]: −5.83
log Ppara [4]: −6.87
Pm^7.4 [4]: 1.5

CNS(=O)(=O)Cc1ccc2[nH]cc(CCN(C)C)c2c1 [Sumatriptan]
obs–calc (log Po^in situ) [1, 13]: 0.0
Q (charge class) [2, 14]: +
pKa (physchem [11]): 9.64
log PABL [4]: −4.65
log Po [4]: −4.86
log Ppara [4]: −7.51
Pm^7.4 [4]: 0.4

CC(C)(C)NC(=O)[C@@H]1CN(Cc2cccnc2)CCN1C[C@@H](O)C[C@@H](Cc1ccccc1)C(=O)N[C@H]1c2ccccc2C[C@H]1O [Indinavir]
obs–calc (log Po^in situ) [1, 13]: −0.4
obs–calc (log Po^in situ) ([1]; efflux inhibition mdr1a(−/−)): 0.3
Q (charge class) [2, 14]: 0
pKa ([10]; ref [11]): 4.91
log Po ([7]; PAMPA): −5.17

CCCN1C[C@H](C)N([C@H](c2ccc(C(=O)N(CC)CC)cc2)c2cccc(OC)c2)C[C@H]1C [SNC121]
Q (charge class) [2]: +
log Po^in situ (obs) [6]: −2.96
log Po ([7]; PAMPA): −2.91
Pm^7.4 ([7]; PAMPA): 201
PS [9]: 363 10^−4 mLg^−1s^−1
log PS [9]: −1.44

CN1C[C@H](C(=O)N[C@]2(C)O[C@@]3(O)[C@@H]4CCCN4C(=O)[C@H](Cc4ccccc4)N3C2=O)C=C2c3cccc4[nH]cc(c34)C[C@H]21 [Ergotamine]
obs–calc (log Po^in situ) [1]: 0.1
Q (charge class) [2]: 0
pKa (physchem [11]): 9.49
log Po^in situ (obs) [5]: −3.82
PS ([8]; in vivo): 87 10^−4 mLg^−1s^−1
log PS ([8]; in vivo): −2.06
log PABL [4]: −3.73
log Po [4]: −2.50
log Ppara [4]: −6.03
Pm^7.4 [4]: 1823

CN(C)C(=O)C(CCN1CCC(O)(c2ccc(Cl)cc2)CC1)(c1ccccc1)c1ccccc1 [Loperamide]
Q (charge class) [2]: +
log Po^in situ (obs) [6]: −2.52
log PABL [4]: −3.19
log Po [4]: −2.67
log Ppara [4]: −12
Pm^7.4 [4]: 102

O=c1n(CCCN2CCN(c3cccc(Cl)c3)CC2)nc2ccccn12 [Trazodone]
obs–calc (log Po^in situ) ([1]; no efflux inhibition): 0.0
Q (charge class) [2, 14]: 0
pKa (physchem [11]): 7.46
log PABL [4]: −3.90
log Po [4]: −2.94
log Ppara [4]: −5.99
Pm^7.4 [4]: 534

CCCN(CCC)S(=O)(=O)c1ccc(C(=O)O)cc1 [Probenecid]
obs–calc (log Po^in situ) ([1]; efflux inhibition mdr1a(−/−)): −0.6
obs–calc (log Po^in situ) ([1]; no efflux inhibition): −0.7
Q (charge class) [2, 14]: −
pKa ([10]; ref [38]): 3.16
log PABL [4]: −3.52
log Po [4]: −2.97
log Ppara [4]: −6.10
Pm^7.4 [4]: 0.06
